In paper PMC3638593, “1,4-dihydroxy-2-naphthoic Acid Induces Apoptosis in Human Keratinocyte: Potential Application for Psoriasis Treatment” (Evidence-based Complementary and Alternative Medicine : eCAM, 2013):
“And” between values parts separate entries of the source, which are not always exact repeats. Identical values can stand only once. Like-named read-outs stand apart in the source and are kept apart here.

Legend:
Format in all cases: cell-based, human
HaCaT cells [1] = assay: TUNEL assay, flow cytometry; details: 24 h
Protocol: After DHNA treatment, HaCaT cells were collected and washed and subsequent steps were following the protocol of In Situ Cell Death Detection kit, Fluorescein (Roche Applied Science). Fluorescein-labeled DNA strand breaks were detected by flow cytometry. The percentage of hypodiploid (fragmented) nuclei reflecting relative proportion of apoptotic cells was analyzed by WinMDI 2.9.

HaCaT cells [2] = assay: DNA fragmentation, Cell Death Detection ELISAplus; details: 240 μM (49.01 μg/mL)
Protocol: After incubation of HaCaT cells with DHNA, subsequent experimental steps were following the protocol of the Cell Death Detection ELISA^plus (Roche Applied Science, Basel, Switzerland). Absorbance was measured at 405/490 nm by the Sunrise microplate spectrophotometer. Enrichment of mono- and oligonucleosomes (cytoplasmic histone-associated DNA fragments) into the cytoplasm was calculated as absorbance of treatment cells/absorbance of control (enrichment factor) which was used as a parameter of apoptosis.

HaCaT cells [3] = assay: Cell cycle analysis (PI, flow cytometry); details: 24 h, Figure 5(a)
Protocol: HaCaT cells were treated with DHNA for 24 h, fixed with 75% ice-cold ethanol at 4°C for 1 h and stained with PI/RNase solution (BD Pharmingen) for 15 min at room temperature in the dark. Stained cells were analyzed using the FACSCanto flow cytometer immediately. Cell cycle distribution was calculated with ModFit LT 3.1 (Verity Software House, Topsham, ME, USA).

HaCaT cells [4] = assay: JC-1 staining, mitochondrial membrane potential
Protocol: After DHNA treatment, HaCaT cells were harvested and washed with PBS. Cells were then incubated in 1.5 μM JC-1 (5,5′,6,6′-tetrachloro-1,1′,3,3′-tetraethylbenzimidazolylcarbocyanine iodide, Molecular Probes) in PBS at 37°C for 15 min in the dark. Thereafter cells were washed, resuspended in PBS and then immediately analyzed on the FACSCanto flow cytometer. If mitochondrial membrane potential (MMP) depolarizes, JC-1 becomes a monomer and emits green fluorescence; when MMP polarizes, JC-1 becomes a polymer and emits red fluorescence. It indicates mitochondria depolarization by a decrease in red/green fluorescence intensity ratio.

[5] = test system: cell cycle related proteins in HaCaT cells; assay: Western blot of cell cycle related proteins; details: 12 h
Protocol: After DHNA treatment HaCaT cells were collected and lysed in CelLytic M Mammalian Cell Lysis/Extraction Reagent with freshly added Protease Inhibitor Cocktail for 30 min at 4°C. Cell lysate was centrifuged at 15000 g for 15 min at 4°C and supernatant was collected as whole cell lysate. Protein concentration was determined by Bio-Rad protein assay dye reagent concentrate (Bio-Rad Laboratories, Hercules, CA, USA) following the manufacturer's instructions. Whole cell lysate was denatured by boiling for 5 min in 6X SDS loading buffer (0.375 M Tris [pH 6.8], 30% glycerol, 12% SDS, 0.2% bromophenol blue and 12% β-mercaptoethanol). Equal amount of protein (10–20 μg) was then separated by 12–15% SDS-PAGE and later proteins were transferred to polyvinylidene difluoride membrane (Millipore, Billerica, MA, USA) using Trans-Blot SD semidry transfer cell (Bio-Rad Laboratories). After that, membranes were blocked with 2–5% (w/v) bovine serum albumin or nonfat dry milk in Tris-buffered Saline-Tween (TBS-T; 0.05% v/v Tween-20, 10 mM Tris [pH 7.4], 150 mM NaCl) for 1 h and subsequently incubated overnight at 4°C with different primary antibodies in TBS-T. Membrane was then washed using TBS-T and followed by incubation with corresponding horseradish peroxidase labeled second antibodies (Santa Cruz Biotechnology) in TBS-T for 1 h. After washing of membrane with TBS-T, protein bands were visualized using Immobilon Western Chemiluminescent HRP Substrate (Millipore) and autoradiography with Lumi-Film Chemiluminescent Detection Film (Roche Applied Science). Equal protein loading was monitored by β-actin antibody on the same membrane.

NCTC 2544 cells = assay: Proliferation assay (sulphorhodamine B) on NCTC 2544; details: for IC50: Homo sapiens, read-out: IC50 on growth
Source text: (§1) The spontaneously immortalized human epidermal keratinocyte HaCaT cells were purchased from China Centre for Type Culture Collection, Wuhan, China. The human foreskin fibroblast Hs-68 cells were purchased from the American Type Culture Collection (Manassas, VA, USA). The human undifferentiated keratinocyte NCTC 2544 cells were provided by Interlab Cell Line Collection (Genoa, Italy) and the immortalized human epidermal melanocyte PIG1 cells were a gift from Dr Caroline Le Poole (Loyola University Chicago, Maywood, IL, USA). HaCaT and Hs-68 cells were maintained in DMEM, NCTC 2544 in RPMI 1640 and PIG1 cells in Medium 254 with Human Melanocyte Growth Supplement-2, respectively. All cells were cultured in complete medium containing 10% FBS, 100 μg/mL of streptomycin, and 100 U/mL of penicillin (Gibco Laboratories) at 37°C in a humidified atmosphere of 5% CO2. Cell culture experiments were carried out at 60–80% confluent.
(§2) The ethyl acetate extract (EA) of Rubia cordifolia L. was isolated as described. 1,4-dihydroxy-2-naphthoic acid (98%), dithranol (≥90%), and EA were dissolved in DMSO as stock. All cells were seeded and treated with various concentrations of DHNA, dithranol or EA. After treatment, cells were fixed with cold 50% trichloroacetic acid and incubated 1 h at 4°C. Cell was then washed with deionized water, air-dried, and stained with 0.4% (w/v) sulphorhodamine B for 30 min at room temperature. Unincorporated dye was removed with 1% acetic acid wash and the cell was again air-dried. Incorporated dye was then solubilized in 10 mM Tris base and absorbance was measured at 565/690 nm using a Sunrise microplate spectrophotometer (Tecan, Switzerland). IC50 were determined using GraphPad Prism 5.0 (GraphPad Software, San Diego, CA, USA).

HaCaT cells [6] = assay: Proliferation assay (sulphorhodamine B) on HaCaT; details: for IC50: Homo sapiens, read-out: IC50 on growth
Source text: as §1, §2

In the case of `O=C(O)c1cc(O)c2ccccc2c1O` [DHNA, 1,4-dihydroxy-2-naphthoic acid], the TUNEL positive cells (HaCaT cells [1]; 30 μM/6.13 μg/mL) is reported as 15.8%, the TUNEL positive cells (HaCaT cells [1]; 240 μM/49.01 μg/mL) is reported as 92.7% and the “increase of DNA fragmentation compared with vehicle control” value (HaCaT cells [2]; 24 h) is reported as “approximately 3.4 folds”. The “increase of DNA fragmentation compared with vehicle control” value (HaCaT cells [2]; 48 h) was roughly 5.2 folds, the G0/G1 cell population (HaCaT cells [3]; 60 μM (12.25 μg/mL)) was 39.3% and the G2/M phase cells (HaCaT cells [3]; 60 μM (12.25 μg/mL)) was 12.4%. The G0/G1 cell population (HaCaT cells [3]; 120 μM (24.5 μg/mL)) was 51.0%, the G2/M phase cells (HaCaT cells [3]; 120 μM (24.5 μg/mL)) was 9.4% and the S phase cells (HaCaT cells [3]; 120 μM (24.5 μg/mL)) was 39.6%. For the same compound, the sub-G0/G1 population (HaCaT cells [3]; 120 μM (24.5 μg/mL)) was 19.7%, the “MMP (red/green JC-1 fluorescence ratio) compared with vehicle control” value (shortened to “MMP (red/green JC-1 fluorescence ratio)”) (HaCaT cells [4]; 30 μM/6.13 μg/mL, 24 h) was 103.3% and the “MMP (red/green JC-1 fluorescence ratio)” value (HaCaT cells [4]; 30 μM/6.13 μg/mL, 48 h) was 95.5%. The “MMP (red/green JC-1 fluorescence ratio)” value (HaCaT cells [4]; 240 μM/49.01 μg/mL, 24 h) was 35.4%, the “MMP (red/green JC-1 fluorescence ratio)” value (HaCaT cells [4]; 240 μM/49.01 μg/mL, 48 h) was 29.2% and the “active form of Cdk2 (Thr160 phosphorylated, 33 kDa)” value ([5]; 240 μM (49.01 μg/mL)) was “no visible change”. For the same compound, the “inactive form of Cdk2 (Thr14 and Tyr15 phosphorylated, 34 kDa)” value ([5]; 240 μM (49.01 μg/mL)) was “increased”, the “level of Cyclin A/D1/D3 and Cdk4” value ([5]; 240 μM (49.01 μg/mL)) was “decreasing” and the “expression level of p27 and Cdk6” value [5] was “remains unchanged”. The “expression of cyclin dependent kinase inhibitor p21” value [5] was “dose-dependent increase”, the IC50 (NCTC 2544 cells; NCTC 2544, incubation 48 h) was 81.4 µM and 16.6 µg/mL and the IC50 (NCTC 2544 cells; NCTC 2544, incubation 72 h) was 46.8 µM and 9.56 µg/mL. For the same compound, the “less potent than dithranol in inhibiting keratinocytes growth” value (NCTC 2544 cells; NCTC 2544, compared with dithranol) was ~ 12 times, the IC50 (HaCaT cells [6]; incubation 48 h) was 111 µM and 22.8 µg/mL and the IC50 (HaCaT cells [6]; incubation 72 h) was 38.9 µM and 7.95 µg/mL. The “less potent than dithranol in inhibiting keratinocytes growth” value (HaCaT cells [6]; compared with dithranol) was ~ 4 times.
